Structures can show the parent of a compound that is named as a salt.
The compounds below were run on PRKACA-PRKAR2A interaction (SmBiT-PRKACA / LgBiT-PRKAR2A), protein kinase A. Details: 0.5 h, 20 µM; inhibitor.
Parameters: NanoLuc complementation counter-screen in cell extract, PRKACA with PRKAR2A, loss of luminescence, detects NanoLuc interference

| Structure (SMILES) | Inh (PKA) [%] |
| --- | --- |
| CN1CCCCC1Cn1cc(C(=O)c2cc([N+](=O)[O-])ccc2I)c2ccccc21 (stereo not drawn) [UM0141913:01, AM1241] | 12.3 |

Same assay, conditions: counter-screen for NanoLuc interference, 0.5 h, 20 µM, inhibitor, Inh (PKA)

| Structure (SMILES) | Inh (PKA) [%] |
| --- | --- |
| COc1cc(Nc2ncc(F)c(Nc3ccc4c(n3)NC(=O)C(C)(C)O4)n2)cc(OC)c1OC [UM0141915:01, R406 (free base)] | 51.96 |
| COC(=O)N[C@H](C(=O)N[C@@H](Cc1ccccc1)[C@@H](O)CN(Cc1ccc(-c2ccccn2)cc1)NC(=O)[C@@H](NC(=O)OC)C(C)(C)C)C(C)(C)C [UM0141949:01, Atazanavir] | 2.849 |

Same assay, conditions: counter-screen for NanoLuc interference; 0.5 h, 20 µM; inhibitor

| Structure (SMILES) | Inh (PKA) [%] |
| --- | --- |
| O=P(O)(O)C(O)(Cc1cccnc1)P(=O)(O)O [UM0141876:01, Risedronate Sodium] | -0.1627 |
| CNS(=O)(=O)Cc1ccc2[nH]cc(CCN(C)C)c2c1 [UM0141877:01, Sumatriptan Succinate] | 0.457 |
| CCOc1cc(CC(=O)N[C@@H](CC(C)C)c2ccccc2N2CCCCC2)ccc1C(=O)O [UM0141879:01, Repaglinide] | 5.467 |
| COc1c(N2C[C@@H]3CCCN[C@@H]3C2)c(F)cc2c(=O)c(C(=O)O)cn(C3CC3)c12 [UM0141881:01, Moxifloxacin HCl] | 1.366 |
| Cc1ccc(C(=O)N(CCCN)[C@@H](c2nc3cc(Cl)ccc3c(=O)n2Cc2ccccc2)C(C)C)cc1 [UM0141883:01, Ispinesib (SB-715992)] | 12.18 |
| COc1ccc(C(CN(C)C)C2(O)CCCCC2)cc1 (stereo not drawn) [UM0141884:01, Venlafaxine] | -0.1027 |
| CC(c1cc2ccccc2s1)N(O)C(N)=O (stereo not drawn) [UM0141885:01, Zileuton] | 2.302 |
| c1cnc2cc3c(cc2n1)[C@@H]1CNC[C@H]3C1 [UM0141886:01, Varenicline Tartrate] | 1.343 |
| COc1ccc(S(=O)(=O)N(C(C)=O)c2ccccc2/C=C/c2cc[n+]([O-])cc2)cc1 [UM0141887:01, HMN-214] | 4.215 |
| Nc1nc(F)nc2c1ncn2[C@@H]1O[C@H](CO)[C@@H](O)[C@@H]1O [UM0141888:01, Fludarabine] | 1.153 |
| CC(=O)Nc1nc(C)c(-c2ccc(Cl)c(S(=O)(=O)NCCO)c2)s1 [UM0141889:01, PIK-93] | 6.642 |
| CCN1CCN(Cc2ccc(-c3cc4c(N[C@H](C)c5ccccc5)ncnc4[nH]3)cc2)CC1 [UM0141890:01, AEE788 (NVP-AEE788)] | 7.14 |
| CC(C)CC(=O)Nc1n[nH]c2c1CN(C(=O)C1CCN(C)CC1)C2(C)C [UM0141891:01, PHA-793887] | 3.326 |
| Cc1ccc(C(=O)Nc2ccc(CN3CCN(C)CC3)c(C(F)(F)F)c2)cc1C#Cc1cnc2cccnn12 [UM0141892:01, Ponatinib (AP24534)] | 38.47 |
| Cc1cc([C@@H](C)Nc2ccccc2C(=O)O)c2nc(N3CCOCC3)cc(=O)n2c1 [UM0141893:01, AZD6482] | 55.75 |
| O=C(NCc1ccccc1)c1csc(Nc2ccncn2)n1 [UM0141894:01, Thiazovivin] | -0.9736 |
| CC(C)(C)Cn1c(N)nc2ccc(-c3[nH]c(C(C)(C)C)nc3-c3ccc(F)cc3)nc21 [UM0141895:01, LY2228820] | 34.84 |
| O=C(NC[C@H](O)CO)c1ccncc1Nc1ccc(I)cc1F [UM0141896:01, Pimasertib (AS-703026)] | 20.8 |
| Cc1cccc(-c2[nH]c(C(C)(C)C)nc2-c2ccc3nccnc3c2)n1 [UM0141897:01, SB525334] | 4.915 |

| Structure (SMILES) | Inh (PKA) [%] |
| --- | --- |
| CC1=C(C(=O)Nc2cc3cn[nH]c3cc2F)C(c2ccc(C(F)(F)F)cc2)CC(=O)N1 (stereo not drawn) [UM0141898:01, GSK429286A] | 8.844 |
| Clc1ccc(C2(c3ccc(-c4cn[nH]c4)cc3)CCNCC2)cc1 [UM0141900:01, AT7867] | 29.71 |
| CCOc1ccn(-c2ccc(F)cc2)c(=O)c1C(=O)Nc1ccc(Oc2ccnc(N)c2Cl)c(F)c1 [UM0141902:01, BMS-777607] | 68.15 |
| O=C(NOCC(O)CO)c1cc(Br)c(F)c(F)c1Nc1ccc(I)cc1F (stereo not drawn) [UM0141903:01, PD318088] | 48.65 |
| CCOC(=O)c1ccc(C#Cc2ccc3c(c2)C(C)(C)CCS3)nc1 [UM0141904:01, Tazarotene] | 17.58 |
| O=C(NC1CCNCC1)c1n[nH]cc1NC(=O)c1c(Cl)cccc1Cl [UM0141905:01, AT7519] | 0.5831 |
| O=S(=O)(c1cccc2cnccc12)N1CCCNCC1 [UM0141906:01, Fasudil (HA-1077) HCl] | 33.96 |
| CCCNC(=O)Nc1ccc(Oc2ncnc3cc(OC)c(OC)cc23)cc1Cl [UM0141907:01, KRN 633] | 0.03165 |
| O=C(O)c1cc(/N=N/c2ccc(S(=O)(=O)Nc3ccccn3)cc2)ccc1O [UM0141908:01, Sulfasalazine] | 56.84 |
| Nc1ccn(C[C@@H](CO)OCP(=O)(O)O)c(=O)n1 [UM0141909:01, Cidofovir] | -0.4944 |
| CN(C)Cc1cccc(N/C(=C2\C(=O)Nc3cc(C(N)=O)ccc32)c2ccccc2)c1 [UM0141912:01, BIX 02188] | 13.5 |
| CCOc1ccc(Cc2cc([C@@H]3O[C@H](CO)[C@@H](O)[C@H](O)[C@H]3O)ccc2Cl)cc1 [UM0141914:01, Dapagliflozin] | 0.9919 |
| CCCCCCCCCCCCc1ccc(S(=O)(=O)Nc2nncs2)cc1 [UM0141916:01, PHT-427] | 11.59 |
| Cc1nc(-c2ccc(OCC(C)C)c(C#N)c2)sc1C(=O)O [UM0141917:01, Febuxostat] | 17.81 |
| COc1ccc2cc(-c3nc(-c4ccc([S+](C)[O-])cc4)[nH]c3-c3ccncc3)ccc2c1 (stereo not drawn) [UM0141919:01, Tie2 kinase inhibitor] | 68.85 |
| CN1C/C(=C/c2ccc(B(O)O)cc2)C(=O)/C(=C\c2ccc(B(O)O)cc2)C1 [UM0141922:01, AM 114] | 1.277 |
| NCCCC[C@@H]1NC(=O)[C@@H](Cc2ccccc2)NC(=O)[C@H](CC(=O)O)NC(=O)CNC(=O)[C@H](CCCN=C(N)N)NC1=O [UM0141923:01, Cyclo (-RGDfK)] | -1.971 |
| COC(=O)C[C@H](NC(=O)[C@@H](NC(=O)c1ccc2ccccc2n1)C(C)C)C(=O)COc1c(F)cccc1F [UM0141924:01, Q-VD(OMe)-OPh] | 13.3 |
| CO[C@H]1C[C@@H]2CC[C@@H](C)[C@@](O)(O2)C(=O)C(=O)N2CCCC[C@H]2C(=O)O[C@H]([C@H](C)C[C@@H]2CC[C@@H](O)[C@H](OC)C2)CC(=O)[C@H](C)/C=C(\C)[C@@H](O)[C@@H](OC)C(=O)[C@H](C)C[C@H](C)/C=C/C=C/C=C/1C [UM0141925:01, Rapamycin (Sirolimus)] | 2.249 |

| Structure (SMILES) | Inh (PKA) [%] |
| --- | --- |
| CCOC(=O)C1=C(N)Oc2ccc(Br)cc2[C@H]1[C@H](C#N)C(=O)OCC [UM0141926:01, HA14-1] | 18.52 |
| CO[C@H]1C[C@@H]2CC[C@@H](C)[C@@](O)(O2)C(=O)C(=O)N2CCCC[C@H]2C(=O)O[C@H]([C@H](C)C[C@@H]2CC[C@@H](OCCO)[C@H](OC)C2)CC(=O)[C@H](C)/C=C(\C)[C@@H](O)[C@@H](OC)C(=O)[C@H](C)C[C@H](C)/C=C/C=C/C=C/1C [UM0141927:01, Everolimus (RAD001)] | 0.7572 |
| CC(NC(=O)[C@H](Cc1ccccc1)NC(=O)OCc1ccccc1)C(=O)CF (stereo partly drawn) [UM0141928:01, Z-FA-FMK] | 4.07 |
| Nc1ccccc1NC(=O)c1ccc(CNC(=O)OCc2cccnc2)cc1 [UM0141929:01, Entinostat (MS-275,SNDX-275)] | 3.043 |
| CC(C)CCCCC(=O)N[C@@H](CO)C(=O)N[C@@H](CC(C)C)C(=O)[C@@]1(CO)CO1 [UM0141930:01, Dihydroeponemycin] | 3.421 |
| C/C=C1\NC(=O)[C@H]2CSSCC/C=C/[C@H](CC(=O)N[C@H](C(C)C)C(=O)N2)OC(=O)[C@H](C(C)C)NC1=O [UM0141931:01, Romidepsin (FK228, depsipeptide)] | 2.202 |
| CN(C(=O)c1cc2ccccc2cc1C(=O)C(c1cccc2ccccc12)P(=O)(O)O)C1CCN(C(=O)c2ccccc2)CC1 (stereo not drawn) [UM0141932:01, Cathepsin G Inhibitor I] | 16.06 |
| C=CCc1cccc(/C=N/NC(=O)CN2CCN(Cc3ccccc3)CC2)c1O [UM0141933:01, PAC-1] | 9.934 |
| CC(C)C[C@H](NC(=O)[C@H](CC(C)C)NC(=O)[C@H](CC(C)C)NC(=O)OCc1ccccc1)B(O)O [UM0141934:01, MG-262] | 2.364 |
| CN([C@@H](Cc1ccc(OS(=O)(=O)c2cccc3cnccc23)cc1)C(=O)N1CCN(c2ccccc2)CC1)S(=O)(=O)c1cccc2cnccc12 [UM0141935:01, KN-62] | 9.099 |
| C[C@@]1(F)[C@H](O)[C@@H](CO)O[C@H]1n1ccc(=O)[nH]c1=O [UM0141938:01, PSI-6206] | 1.416 |
| CC(C)[C@H](O)C(=O)N[C@@H](C)C(=O)N[C@@H]1C(=O)N(C)CCc2ccccc21 [UM0141939:01, Semagacestat (LY450139)] | -0.02723 |
| C[C@@H]1O[C@@H](CC(=O)O)CC2=C1C(=O)c1c(O)cccc1C2=O [UM0141940:01, Nanaomycin A] | 18.84 |
| COc1cc2ncnc(Nc3cccc(Br)c3)c2cc1OC [UM0141943:01, PD153035 hydrochloride] | 18.98 |
| CC(C)c1nc(CN(C)C(=O)N[C@H](C(=O)N[C@@H](Cc2ccccc2)C[C@H](O)[C@H](Cc2ccccc2)NC(=O)OCc2cncs2)C(C)C)cs1 [UM0141947:01, Ritonavir] | 6.592 |
| Cc1cccc(C)c1OCC(=O)N[C@@H](Cc1ccccc1)[C@@H](O)C[C@H](Cc1ccccc1)NC(=O)[C@H](C(C)C)N1CCCNC1=O [UM0141948:01, Lopinavir] | 17.52 |
| CC(C)CN(C[C@@H](O)[C@H](Cc1ccccc1)NC(=O)O[C@H]1CO[C@H]2OCC[C@H]21)S(=O)(=O)c1ccc(N)cc1 [UM0141950:01, Darunavir] | 4.833 |
| COc1cc2c(cc1OC)CN(CCc1ccc(NC(=O)c3cc(OC)c(OC)cc3NC(=O)c3cnc4ccccc4c3)cc1)CC2 [UM0141951:01, Tariquidar] | 12.46 |
| N#CSc1cc(SC#N)c(N)nc1N [UM0141952:01, PR-619] | 19.82 |
